Assay results published in publication PMC5587682 (Scientific Reports, 2017).
Read-outs that look alike come from different tables or passages of the source. Positions of bridges follow the written chain, without caps; N, C: chain ends. Residues, ends and D or L forms follow the SMILES beside them.

Columns and labels:
[1] = system: Influenza A virus strains (all tested viruses); conditions: earlier work; ref [23]; cited from earlier work
[2] = system: Influenza A virus strains (all tested viruses); conditions: earlier work; ref [23]; cited from earlier work; remark: listed apart in the source
A/Parma/05/06 H3N2 [3] = assay type: cell-based, Influenza A virus; conditions: turkey erythrocytes
[4] = system: A/Roma-ISS/02/08 H1N1 oseltamivir-sensitive virus; assay type: cell-based, Influenza A virus; conditions: turkey erythrocytes
A/Parma/05/06 H3N2 [5] = system: A/Parma/05/06 H3N2
[6] = A/Parma/05/06 H3N2, MDCK cells, CC50 >25 μM
[7] = A/Roma-ISS/02/08 H1N1, MDCK cells, CC50 >25 μM
[8] = A/Parma/24/09 H1N1, MDCK cells, CC50 >25 μM
[9] = A/Parma/24/09 H1N1, MDCK cells, mean of 3 experiments with standard errors
[10] = A/Roma-ISS/02/08 H1N1, MDCK cells, mean of 3 experiments with standard errors
[11] = A/Parma/05/06 H3N2, MDCK cells, mean of 3 experiments with standard errors
[12] = A/Roma-ISS/2/08 H1N1, neutralization

Row | Compound | HI titer (A/Parma/05/06 H3N2 [3]) [nM] | HI titer [4] [nM] | SI (CC50/EC50) (A/Parma/05/06 H3N2 [5]; [6]) | SI (CC50/EC50) (A/Roma-ISS/02/08 H1N1; [7]) | SI (CC50/EC50) (A/Parma/24/09 H1N1; [8]) | further results
1 | NGESSADWAKN [Peptide 3] |  |  |  |  |  | concentration inhibiting viral hemagglutination [1]: low picomolar; concentration inhibiting viral infection [2]: low picomolar
2 | SKHSSLDCVLRPTEGY [Peptide 12, bLf C-lobe fragment 418–433] | 0.03 | 0.7 |  |  |  | 
3 | C[C@@H](O)[C@H](NC(=O)[C@H](CCC(=O)O)NC(=O)[C@H](CO)NC(=O)[C@@H](N)CCCCN)C(=O)N[C@@H](CCCCN)C(=O)N[C@@H](CC(N)=O)C(=O)O [Peptide 8, KSETKN] (H-KSETKN-OH; N-terminus and C-terminus assumed) | 3 | 1.5 | >0.65.10^2 | >5.10^7 | >5.10^4 | EC50 (A/Parma/24/09 H1N1; [9]): 500 ± 0.46 pM
4 | NRKSSKHSSLDCVLRPTEGY [Peptide 10, bLf C-lobe fragment 414–433] | 0.0014 | 0.3 |  |  |  | 
5 | C[C@H](NC(=O)[C@H](Cc1c[nH]c2ccccc12)NC(=O)[C@H](CC(=O)O)NC(=O)[C@H](C)NC(=O)[C@@H](NC(=O)[C@H](CO)NC(=O)[C@H](CCC(=O)O)NC(=O)CNC(=O)[C@H](CC(N)=O)NC(=O)[C@@H](N)[C@@H](C)O)[C@@H](C)O)C(=O)N[C@@H](CCCCN)C(=O)N[C@@H](CC(N)=O)C(N)=O [Peptide 6, TNGESTADWAKN] (H-TNGESTADWAKN-NH2; N-terminus and C-terminus assumed) | 0.3 | 0.7 | >2.5.10^3 | >6.25.10^4 | >5.10^2 | EC50 (A/Roma-ISS/02/08 H1N1; [10]): 400 ± 0.02 pM
6 | CC(=O)N[C@@H](CO)C(=O)N[C@@H](CCCCN)C(=O)N[C@@H](Cc1c[nH]cn1)C(=O)N[C@@H](CO)C(N)=O [Peptide 17, SKHS] (Ac-SKHS-NH2) |  |  |  |  |  | SI (CC50/EC50) (A/Parma/05/06 H3N2 [5]): >5.10^6; EC50 (A/Parma/05/06 H3N2 [5]; A/Parma/05/06, 1 h): 5 ± 0.02 pM; SI (CC50/EC50) (A/Roma-ISS/02/08 H1N1): >8.33.10^6; EC50 (A/Roma-ISS/02/08 H1N1; A/Roma-ISS/02/08, 1 h): 3 ± 0.61 pM; SI (CC50/EC50) (A/Parma/24/09 H1N1): >5.2.10^8
7 | AGDDQGLDKCVPNSKEK [Peptide 2, bLf C-lobe fragment 506–522] |  |  |  |  |  | concentration inhibiting viral hemagglutination [1]: low picomolar; concentration inhibiting viral infection [2]: low picomolar
8 | CC(C)C[C@H](NC(=O)[C@H](CO)NC(=O)[C@H](CO)NC(=O)[C@H](Cc1c[nH]cn1)NC(=O)[C@H](CCCCN)NC(=O)[C@@H](N)CO)C(=O)N[C@@H](CC(=O)O)C(=O)N[C@@H](CS)C(=O)N[C@H](C(=O)N[C@@H](CC(C)C)C(=O)N[C@@H](CCCNC(=N)N)C(=O)N1CCC[C@H]1C(=O)O)C(C)C [Peptide 1, SKHSSLDCVLRP] (H-SKHSSLDCVLRP-OH) |  |  | >4.4.10^6 | >6.25.10^6 | >8.10^6 | 
9 | CC(=O)N[C@H](C(=O)N[C@@H](CC(C)C)C(=O)N[C@@H](CCCNC(=N)N)C(=O)N1CCC[C@H]1C(N)=O)C(C)C [Peptide 14, VLRP] (Ac-VLRP-NH2) |  |  |  |  |  | SI (CC50/EC50) (A/Parma/05/06 H3N2 [5]): >1.10^5; EC50 (A/Parma/05/06 H3N2 [5]; A/Parma/05/06, 1 h): 250 ± 0.42 pM; SI (CC50/EC50) (A/Roma-ISS/02/08 H1N1): >5.55.10^7; SI (CC50/EC50) (A/Parma/24/09 H1N1): >2.5.10^7; EC50 (A/Parma/24/09 H1N1; A/Parma/24/09, 1 h): 1 ± 0.05 pM
10 | CC(C)C[C@H](NC(=O)[C@H](CO)NC(=O)[C@H](CO)NC(=O)[C@H](Cc1c[nH]cn1)NC(=O)[C@H](CCCCN)NC(=O)[C@@H](N)CO)C(=O)N[C@@H](CC(=O)O)C(=O)N[C@@H](CS)C(=O)O [Peptide 16, SKHSSLDC] (H-SKHSSLDC-OH; N-terminus and C-terminus assumed) | 12 | 0.3 | >5.10^6 | >3.125.10^5 | >2.5.10^8 | EC50 (A/Parma/05/06 H3N2 [5]; [11]): 5 ± 0.45 pM; fold less active than 1 (A/Roma-ISS/02/08 H1N1; [12]): 20 fold; fold less active than 13 (A/Roma-ISS/02/08 H1N1; [12]): 270 fold; EC50 (A/Roma-ISS/02/08 H1N1; [10]): 80 ± 0.19 pM; fold more potent than 1 (A/Parma/24/09 H1N1; A/Parma/24/09 H1N1, neutralization): 30 fold
11 | NRKSSKHSSLDCVLRP [Peptide 11, bLf C-lobe fragment 414–429] | 0.4 |  |  |  |  | 
12 | CC(C)C[C@H](NC(=O)[C@@H](NC(=O)[C@H](CS)NC(=O)[C@H](CC(=O)O)NC(=O)[C@H](CC(C)C)NC(=O)[C@@H](N)CO)C(C)C)C(=O)N[C@@H](CCCNC(=N)N)C(=O)N1CCC[C@H]1C(N)=O [Peptide 13, SLDCVLRP] (H-SLDCVLRP-NH2) | 0.0004 | 0.0007 | >8.33.10^4 | >8.33.10^7 | >1.10^7 | EC50 (A/Parma/05/06 H3N2 [5]; [11]): 300 ± 0.2 pM; loss of activity with respect to 1 (A/Parma/05/06 H3N2 [5]; H3N2 strain, neutralization): ≈ 50 fold; EC50 (A/Parma/24/09 H1N1; [9]): 2.5 ± 0.37 pM
13 | CC(=O)N[C@@H](CO)C(=O)N[C@@H](CC(C)C)C(=O)N[C@@H](CC(=O)O)C(=O)N[C@@H](CS)C(N)=O [Peptide 15, SLDC] (Ac-SLDC-NH2) |  |  |  | >5.10^7 | >5.4.10^6 | EC50 (A/Parma/24/09 H1N1; [9]): 4.6 ± 0.05 pM
14 | C[C@H](NC(=O)CNC(=O)[C@@H]1CCCN1C(=O)[C@H](C)NC(=O)[C@@H]1CSSC[C@H](NC(=O)[C@H](CO)NC(=O)CNC(=O)[C@@H](N)[C@@H](C)O)C(=O)N[C@@H](C)C(=O)N[C@@H](Cc2ccccc2)C(=O)N[C@@H](CC(=O)O)C(=O)N[C@@H](CCC(=O)O)C(=O)N[C@@H](Cc2ccccc2)C(=O)N[C@@H](Cc2ccccc2)C(=O)N[C@@H](CO)C(=O)N[C@@H](CCC(N)=O)C(=O)N[C@@H](CO)C(=O)N1)C(=O)N[C@@H](CC(=O)O)C(=O)N1CCC[C@H]1C(=O)N[C@@H](CCCCN)C(=O)N[C@@H](CO)C(=O)N[C@@H](CCCNC(=N)N)C(=O)O [Peptide 5] (H-TGSCAFDEFFSQSCAPGADPKSR-OH; disulfide 4-14; N-terminus assumed) | 97 |  |  |  |  | 
15 | CC(C)C[C@H](NC(=O)CNC(=O)[C@H](CCC(=O)O)NC(=O)[C@H](CC(N)=O)NC(=O)[C@H](C)NC(=O)[C@@H](N)CCCCN)C(=O)N[C@H](C(=O)N[C@@H](Cc1c[nH]c2ccccc12)C(=O)N[C@@H](CC(N)=O)C(=O)N[C@@H](CO)C(=O)N[C@@H](CC(C)C)C(=O)N[C@@H](CCCCN)C(=O)N[C@@H](CC(=O)O)C(=O)N[C@@H](CCCCN)C(=O)O)[C@@H](C)O [Peptide 4, KANEGLTWNSLKDK] (H-KANEGLTWNSLKDK-OH) |  |  | >2.5.10^4 | >2.5.10^7 | >5.10^2 | EC50 (A/Roma-ISS/02/08 H1N1; [10]): 1 ± 0.15 pM
